Test results published in publication PMC9516332 (Frontiers in Oncology, 2022).
Where two headings read alike, the source gives them in different places.

Columns and labels:
AP-1060 (ETV6-NTRK3) = assay: Cell viability assay; settings: read-out: IC50 in cell proliferation assay
134 cancer cell lines = assay: Cell viability assay (ATPlite, 72 hours), IC50 on cancer cell line panel

Cc1cc(Nc2ncc(Cl)c(Nc3ccccc3S(=O)(=O)C(C)C)n2)c(OC(C)C)cc1C1CCNCC1 [ceritinib]
IC50 (AP-1060 (ETV6-NTRK3)): 1770 nM
IC50 (134 cancer cell lines; HEC-6, read-out: IC50 in cell proliferation assay, HEC-6 cell line (EGFR p.A289V)): 3.25 µM
IC50 (134 cancer cell lines; Homo sapiens, 769-P, read-out: IC50 in cell proliferation assay, cell line 769-P): 2.85 µM
IC50 (134 cancer cell lines; Homo sapiens, 786-0, read-out: IC50 in cell proliferation assay, cell line 786-O): 3.28 µM
IC50 (134 cancer cell lines; Homo sapiens, A 172, read-out: IC50 in cell proliferation assay, cell line A-172): 3.94 µM
IC50 (134 cancer cell lines; Homo sapiens, A204, read-out: IC50 in cell proliferation assay, cell line A-204): 2.68 µM
IC50 (134 cancer cell lines; Homo sapiens, A498, read-out: IC50 in cell proliferation assay, cell line A-498): 4.17 µM
IC50 (134 cancer cell lines; Homo sapiens, A549, read-out: IC50 in cell proliferation assay, cell line A-549): 4.56 µM
IC50 (134 cancer cell lines; Homo sapiens, A704, read-out: IC50 in cell proliferation assay, cell line A-704): 6.19 µM
IC50 (134 cancer cell lines; Homo sapiens, A-375, read-out: IC50 in cell proliferation assay, cell line A-375 (BRAF p.V600E)): 1.61 µM
IC50 (134 cancer cell lines; Homo sapiens, A-427, read-out: IC50 in cell proliferation assay, cell line A-427): 1.45 µM
IC50 (134 cancer cell lines; Homo sapiens, ACHN, read-out: IC50 in cell proliferation assay, cell line ACHN): 4.78 µM
IC50 (134 cancer cell lines; Homo sapiens, AN3-CA, read-out: IC50 in cell proliferation assay, cell line AN3-CA (FGFR2 p.N549K)): 4.14 µM
IC50 (134 cancer cell lines; Homo sapiens, ASPC1, read-out: IC50 in cell proliferation assay, cell line AsPC-1): 1.34 µM
IC50 (134 cancer cell lines; Homo sapiens, AU565, read-out: IC50 in cell proliferation assay, cell line AU565 (ERBB2 amplification)): 3.26 µM
IC50 (134 cancer cell lines; Homo sapiens, BT-20, read-out: IC50 in cell proliferation assay, cell line BT-20): 6.05 µM
IC50 (134 cancer cell lines; Homo sapiens, BT-474, read-out: IC50 in cell proliferation assay, cell line BT-474 (ERBB2 amplification)): 3.2 µM
IC50 (134 cancer cell lines; Homo sapiens, BT-549, read-out: IC50 in cell proliferation assay, cell line BT-549): 3.83 µM
IC50 (134 cancer cell lines; Homo sapiens, BXPC-3, read-out: IC50 in cell proliferation assay, cell line BxPC-3): 1.7 µM
IC50 (134 cancer cell lines; Homo sapiens, C-33-A, read-out: IC50 in cell proliferation assay, cell line C-33 A): 4.46 µM
IC50 (134 cancer cell lines; Homo sapiens, CAL-27, read-out: IC50 in cell proliferation assay, cell line CAL-27): 3.02 µM
IC50 (134 cancer cell lines; Homo sapiens, CCF-STTG1, read-out: IC50 in cell proliferation assay, cell line CCF-STTG1): 4.5 µM
IC50 (134 cancer cell lines; Homo sapiens, CCRF-CEM, read-out: IC50 in cell proliferation assay, cell line CCRF-CEM): 3.89 µM
IC50 (134 cancer cell lines; Homo sapiens, COLO 205, read-out: IC50 in cell proliferation assay, cell line COLO 205 (BRAF p.V600E)): 1.88 µM
IC50 (134 cancer cell lines; Homo sapiens, COLO-829, read-out: IC50 in cell proliferation assay, cell line COLO 829 (BRAF p.V600E)): 3.26 µM
IC50 (134 cancer cell lines; Homo sapiens, DLD-1, read-out: IC50 in cell proliferation assay, cell line DLD-1): 4.38 µM
IC50 (134 cancer cell lines; Homo sapiens, DU-4475, read-out: IC50 in cell proliferation assay, cell line DU4475 (BRAF p.V600E)): 2.18 µM
IC50 (134 cancer cell lines; Homo sapiens, Daoy, read-out: IC50 in cell proliferation assay, cell line Daoy): 4.95 µM
IC50 (134 cancer cell lines; Homo sapiens, DoTc2-4510, read-out: IC50 in cell proliferation assay, cell line DoTc2 4510): 1.19 µM
IC50 (134 cancer cell lines; Homo sapiens, EOL1, read-out: IC50 in cell proliferation assay, cell line EoL-1 (FIP1L1-PDGFRA)): 0.564 µM
IC50 (134 cancer cell lines; Homo sapiens, FaDu, read-out: IC50 in cell proliferation assay, cell line FaDu): 3.25 µM
IC50 (134 cancer cell lines; Homo sapiens, G-361, read-out: IC50 in cell proliferation assay, cell line G-361 (BRAF p.V600E)): 1.51 µM
IC50 (134 cancer cell lines; Homo sapiens, HCC827, read-out: IC50 in cell proliferation assay, cell line HCC827 (EGFR exon19del)): 3.71 µM
IC50 (134 cancer cell lines; Homo sapiens, HCC4006, read-out: IC50 in cell proliferation assay, cell line HCC4006 (EGFR exon19del)): 2.73 µM
IC50 (134 cancer cell lines; Homo sapiens, HCT-15, read-out: IC50 in cell proliferation assay, cell line HCT 15): 3.81 µM
IC50 (134 cancer cell lines; Homo sapiens, HCT-116, read-out: IC50 in cell proliferation assay, cell line HCT 116): 2.72 µM
IC50 (134 cancer cell lines; Homo sapiens, HEC-1, read-out: IC50 in cell proliferation assay, HEC-1 cell line): 2.71 µM
IC50 (134 cancer cell lines; Homo sapiens, HEC-1B, read-out: IC50 in cell proliferation assay, HEC-1-B cell line (EGFR p.A864V)): 1.96 µM
IC50 (134 cancer cell lines; Homo sapiens, HL-60, read-out: IC50 in cell proliferation assay, HL-60 cell line): 0.951 µM
IC50 (134 cancer cell lines; Homo sapiens, HT, read-out: IC50 in cell proliferation assay, HT cell line): 4.74 µM
IC50 (134 cancer cell lines; Homo sapiens, HT-1080, read-out: IC50 in cell proliferation assay, HT-1080 cell line): 2 µM
IC50 (134 cancer cell lines; Homo sapiens, Hs746T, read-out: IC50 in cell proliferation assay, Hs 746.T cell line (MET exon14skip + amplification)): 3.34 µM
IC50 (134 cancer cell lines; Homo sapiens, Hs-578T, read-out: IC50 in cell proliferation assay, Hs 578T cell line): 4.07 µM
IC50 (134 cancer cell lines; Homo sapiens, HuTu80, read-out: IC50 in cell proliferation assay, HuTu 80 cell line): 1.67 µM
IC50 (134 cancer cell lines; Homo sapiens, J82, read-out: IC50 in cell proliferation assay, J82 cell line): 4.5 µM
IC50 (134 cancer cell lines; Homo sapiens, Jurkat E6.1, read-out: IC50 in cell proliferation assay, Jurkat E6.1 cell line): 4.07 µM
IC50 (134 cancer cell lines; Homo sapiens, K562, read-out: IC50 in cell proliferation assay, K-562 cell line): 3.97 µM
IC50 (134 cancer cell lines; Homo sapiens, KATO III, read-out: IC50 in cell proliferation assay, KATO III cell line (FGFR2 amplification)): 2.36 µM
IC50 (134 cancer cell lines; Homo sapiens, KG-1, read-out: IC50 in cell proliferation assay, KG-1 cell line (FGFR1OP2-FGFR1)): 3.85 µM
IC50 (134 cancer cell lines; Homo sapiens, KLE, read-out: IC50 in cell proliferation assay, KLE cell line): 3.58 µM
IC50 (134 cancer cell lines; Homo sapiens, KMS-11, read-out: IC50 in cell proliferation assay, KMS-11 cell line (FGFR3 p.Y373C)): 1.31 µM
IC50 (134 cancer cell lines; Homo sapiens, KU812, read-out: IC50 in cell proliferation assay, Ku812 cell line): 1.88 µM
IC50 (134 cancer cell lines; Homo sapiens, Kasumi 1, read-out: IC50 in cell proliferation assay, Kasumi-1 cell line (KIT p.N822K)): 1.04 µM
IC50 (134 cancer cell lines; Homo sapiens, LC-2-ad, read-out: IC50 in cell proliferation assay, LC-2/ad cell line (CCDC6-RET)): 2.02 µM
IC50 (134 cancer cell lines; Homo sapiens, LNCaP-Clone-FGC, read-out: IC50 in cell proliferation assay, LNCaP clone FGC cell line): 3.72 µM
IC50 (134 cancer cell lines; Homo sapiens, LS174T, read-out: IC50 in cell proliferation assay, LS174T cell line): 2 µM
IC50 (134 cancer cell lines; Homo sapiens, LS-411N, read-out: IC50 in cell proliferation assay, LS411N cell line (BRAF p.V600E)): 1.97 µM
IC50 (134 cancer cell lines; Homo sapiens, LoVo, read-out: IC50 in cell proliferation assay, LoVo cell line): 3.47 µM
IC50 (134 cancer cell lines; Homo sapiens, MCF7, read-out: IC50 in cell proliferation assay, MCF-7 cell line): 2.77 µM
IC50 (134 cancer cell lines; Homo sapiens, MDA-MB-231, read-out: IC50 in cell proliferation assay, MDA-MB-231 cell line): 0.782 µM
IC50 (134 cancer cell lines; Homo sapiens, MDA-MB-453, read-out: IC50 in cell proliferation assay, MDA-MB-453 cell line): 0.944 µM
IC50 (134 cancer cell lines; Homo sapiens, MDA-MB-468, read-out: IC50 in cell proliferation assay, MDA-MB-468 cell line): 4.45 µM
IC50 (134 cancer cell lines; Homo sapiens, MG-63, read-out: IC50 in cell proliferation assay, MG-63 cell line): 3.04 µM
IC50 (134 cancer cell lines; Homo sapiens, MIA PaCa-2, read-out: IC50 in cell proliferation assay, MIA PaCa-2 cell line): 2.19 µM
IC50 (134 cancer cell lines; Homo sapiens, MKN-45, read-out: IC50 in cell proliferation assay, MKN45 cell line (MET amplification)): 3.52 µM
IC50 (134 cancer cell lines; Homo sapiens, MOLM-13, read-out: IC50 in cell proliferation assay, MOLM-13 cell line (FLT3 ITD)): 0.995 µM
